Laboratory results reported in paper PMC10578023 (Cell Communication and Signaling : CCS, 2023).
Where two headings read alike, the source gives them in different places.

How the values were obtained:
[1] = biological target: T1, human TYK2 pseudokinase domain (JH2) (Homo sapiens, UniProt P29597); experiment: TYK2 pseudokinase domain (JH2) binding assay, HTRF tracer competition
T1 construct: was added to the recombinant TYK2 pseudokinase domain
Method: An assay that measures the ability of a compound to bind to the TYK2 pseudokinase domain through competition with a tracer was employed. First, human polyhistidine-tag (his-tagged) TYK2 pseudokinase was added to different concentrations of QL-1200186. […] After 1 h at RT, the homogeneous time-resolved fluorescence (HTRF) signal was measured on a plate reader (Envision™; PerkinElmer, Waltham, MA, USA).

[2] = biological target: JAK1 JH2 domain (Homo sapiens, UniProt P23458); experiment: JAK1 JH2 binding assay
[3] = biological target: JAK2 (JH1) (Homo sapiens, UniProt O60674); experiment: JH1 kinase assay, HTRF KinEASE-TK; type: biochemical
Method: (§1) We measured the ability of a compound to bind to JAK1/2/3 and the TYK2 JH1 domain by using HTRF® KinEASE™-TK kits (Millipore, Bedford, MA, USA). JAK1/2/3 and the TYK2 JH1 domain in assay buffer were added to various concentrations of QL-1200186 and incubated for 15 min at RT. Then, the plate was incubated with the biotin-labeled TK substrate and adenosine triphosphate for 45 min at RT. Next, SA-XL665 and TK antibody-Eu3 were added to the detection buffer and incubated for 1 h at RT. The HTRF signal was measured on a plate reader (Envision).

[4] = biological target: JAK3 (JH1) (Homo sapiens, UniProt P52333); experiment: JH1 kinase assay, HTRF KinEASE-TK; type: biochemical
Method: as §1

[5] = biological target: T2, TYK2 JH1 domain (Homo sapiens, UniProt P29597); experiment: JH1 kinase assay, HTRF KinEASE-TK; type: biochemical
T2 construct: JAK1/2/3 and the TYK2 JH1 domain in assay buffer were added
Method: as §1

[6] = tested on: panel of 207 kinase proteins; experiment: Kinase selectivity panel, ADP-Glo kinase assay; type: biochemical, human; settings: 1 μM
Method: The selectivity of QL-1200186 was measured using a panel of 207 kinase proteins. QL-1200186 (final concentration = 1 μM) was placed in a 384-well plate. Different kinase solutions were configured in kinase buffer, HEPES (50 mM), MgCl2 (10 mM), 0.01% Brij, dithiothreitol (2 mM), and then transferred to 384-well plates. After incubation for 10 min at RT, the substrate and adenosine triphosphate were added, and the reaction was allowed to continue for 60 min. Kinase selectivity was determined by the ADP-Glo™ Kinase Assay (V9103; Promega, Fitchburg, WI, USA). Finally, a microplate reader (BMG Labtech, Ortenberg, Germany) was used to measure the luminescence signal. After data analysis, heatmaps and kinase selection trees were drawn using Prism 8.0.2 (GraphPad, La Jolla, CA, USA) and KinMap (www.kinmap.org/), respectively.

[7] = tested on: TYK2/JAK1; experiment: IL-23 HEK293 reporter assay; type: cell-based, human
[8] = tested on: TYK2/JAK1; experiment: IL-23-induced pSTAT3 in human Th17 cells; type: cell-based
Method: Human naïve CD4^+ T cells were separated using a human naïve CD4^+ T-cell isolation kit (StemCell, #17,852), and then cells were stimulated with anti-CD3 monoclonal antibody and anti-CD28 monoclonal antibody for 7–10 days under the following Th17-skewing treatments: IL-6, IL-23, IL-1β and transforming growth factor-β. Half of the medium was replaced with fresh medium containing a stimulant to induce differentiation every other day. Th17 cells were incubated overnight at 37 °C for deactivation. Cells were reinoculated on 96-well plates and cocultured with gradient-diluted QL-1200186 for 1 h and then stimulated with recombinant human IL-23 (ACRO: #IL-B-H52 WS) for 0.5 h. Cells were collected, and phosphorylation of STAT3 was quantified according to the MFI.

[9] = tested on: JAK2/JAK2; experiment: GM-CSF-stimulated pSTAT5 in U937 cells; type: cell-based, human
Method: With respect to GM-CSF-stimulated JAK2 activation in U937 cells (Cobioer Biosciences, CBP60277), after 1 h of treatment with QL-1200186, U937 cells were stimulated with GM-CSF (20 ng/mL; C003; Novoprotein, Suzhou, China) for 15 min.
(§2) The stimulations stated above were terminated with prewarmed Lyse/Fix Buffer (558,049; BD Biosciences, San Jose, CA, USA) for 10 min. Cells were stained with an anti-cluster of differentiation (CD)3 fluorescein isothiocyanate (FITC) antibody (required for PBMCs but not for the other cell types), washed, and permeabilized on ice using Perm III Buffer (558,050; BD Biosciences) prior to staining with an Alexa Fluor 647 anti-phosphorylated (p)STAT5 (pY694) antibody for 30 min and analyzed by flow cytometry. Phosphorylation of STAT5 was quantified by the median fluorescence intensity (MFI) after gating on the CD3-positive population.

[10] = tested on: JAK1/JAK3; experiment: IL-2-stimulated pSTAT5 in human whole blood; type: cell-based
Method: With respect to IL-2-stimulated JAK1/3 activation in human whole blood cells, whole blood (50 μL) was preincubated with compounds for 30 min and then stimulated with IL-2 (20 ng/mL) for 15 min.
as §2

[11] = tested on: human monocytes; experiment: IFNα-induced differentiation of human monocytes to dendritic cells (CD80, CD83, CD86); type: cell-based; settings: 5, 20 or 100 nM, 6 days
Method: First, monocytes in human PBMCs were isolated using an EasySep™ Human CD14 Positive Selection Kit II (17858; Stemcell Technologies, Vancouver, Canada). […] The media were half-changed on days 3 and 5. On day 6, cells were collected and stained with BV421 aqua fluorescent reactive dye (L34966A; Invitrogen), FITC mouse anti-human CD80 (555683; BD Biosciences), PE mouse anti-human CD86 (560957; BD Biosciences) or BUV737 mouse anti-human CD83 (612823; BD Biosciences) antibodies for 20 min. After staining, cells were washed twice and analyzed by flow cytometry.

[12] = Caco-2 permeability assay; type: in vitro ADME
Method: (§3) The ADME properties of QL-1200186 in vitro were measured by the following assays: Caco-2 permeability assay, CYP inhibition assay, protein binding assay, and liver microsome assay. Each assay was performed as previously described.

[13] = Plasma protein binding; type: in vitro ADME
Method: as §3

[14] = Met ID in vitro; type: in vitro ADME, human
[15] = dogs, data not shown
[16] = rats, data not shown

T2 sequence (P29597 897-1176 limits assumed): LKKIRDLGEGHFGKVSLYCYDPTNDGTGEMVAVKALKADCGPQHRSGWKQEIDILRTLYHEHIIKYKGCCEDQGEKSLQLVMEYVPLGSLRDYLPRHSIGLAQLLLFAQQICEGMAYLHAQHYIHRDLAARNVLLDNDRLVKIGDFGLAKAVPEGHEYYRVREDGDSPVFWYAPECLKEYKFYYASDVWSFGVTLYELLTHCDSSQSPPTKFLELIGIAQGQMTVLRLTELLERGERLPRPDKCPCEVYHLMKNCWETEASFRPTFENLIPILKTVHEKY
T1 sequence (P29597 589-875 limits assumed): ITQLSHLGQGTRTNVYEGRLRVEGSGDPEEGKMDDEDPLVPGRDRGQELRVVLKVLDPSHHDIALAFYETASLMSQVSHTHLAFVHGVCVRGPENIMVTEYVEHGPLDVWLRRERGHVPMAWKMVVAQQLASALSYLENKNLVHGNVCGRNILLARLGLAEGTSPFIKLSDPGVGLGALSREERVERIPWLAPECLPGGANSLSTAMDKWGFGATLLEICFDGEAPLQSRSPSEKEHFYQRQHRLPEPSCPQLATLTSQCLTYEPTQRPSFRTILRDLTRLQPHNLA
Chain of JAK2 (JH1) (O60674 849-1124 limits assumed): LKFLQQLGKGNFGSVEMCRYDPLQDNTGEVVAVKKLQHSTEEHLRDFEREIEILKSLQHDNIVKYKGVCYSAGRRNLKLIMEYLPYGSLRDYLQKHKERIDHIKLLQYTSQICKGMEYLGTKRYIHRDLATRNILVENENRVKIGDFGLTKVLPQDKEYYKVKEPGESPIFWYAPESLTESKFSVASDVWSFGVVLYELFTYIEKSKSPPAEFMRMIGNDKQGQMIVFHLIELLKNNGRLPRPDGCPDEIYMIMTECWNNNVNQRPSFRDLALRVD
Chain of JAK3 (JH1) (P52333 822-1111 limits assumed): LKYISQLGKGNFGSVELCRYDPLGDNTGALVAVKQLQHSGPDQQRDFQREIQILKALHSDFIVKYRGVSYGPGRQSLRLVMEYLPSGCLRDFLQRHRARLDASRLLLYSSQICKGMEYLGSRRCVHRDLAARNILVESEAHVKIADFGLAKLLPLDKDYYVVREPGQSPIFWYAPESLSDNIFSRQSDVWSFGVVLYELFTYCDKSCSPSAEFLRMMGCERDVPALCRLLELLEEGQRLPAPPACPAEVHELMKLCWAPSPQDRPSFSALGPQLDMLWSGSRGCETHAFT
Chain of JAK1 JH2 domain (P23458 583-855 limits assumed): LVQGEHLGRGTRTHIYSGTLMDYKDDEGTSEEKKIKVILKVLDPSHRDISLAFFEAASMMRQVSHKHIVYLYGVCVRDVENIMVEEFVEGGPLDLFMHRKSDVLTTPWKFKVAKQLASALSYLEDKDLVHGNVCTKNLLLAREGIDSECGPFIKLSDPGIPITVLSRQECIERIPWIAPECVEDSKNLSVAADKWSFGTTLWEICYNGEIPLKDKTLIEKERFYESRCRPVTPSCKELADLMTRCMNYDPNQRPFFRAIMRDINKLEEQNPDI

## CNC(=O)c1cnc2cc1Nc1cc(cc(-c3ccn(C)n3)c1OC)CCOCc1cccc(n1)N2 [QL-1200186, 5^6-methoxy-N-methyl-5^5-(1-methyl-1H-pyrazol-3-yl)-8-oxa-2,4-diaza-1(2,6),3(2,4)-dipyridina-5(1,3)-benzenacyclononaphane-3^5-carboxamide]
[1]; TYK2 JH2 over JAK1 JH2 binding
  Selectivity fold (TYK2/JAK1): 164 fold
[1]; recombinant TYK2 JH2 domain
  IC50: 0.06 nM
[2]
  IC50: 9.85 nM
[3]
  IC50: > 9900 nM
  Kinase assay (JH1) JAK2 IC50: did not show inhibitory activity
[4]
  IC50: > 9900 nM
  Kinase assay (JH1) JAK3 IC50: did not show inhibitory activity
[5]
  IC50: > 9900 nM
  Kinase assay (JH1) TYK2 IC50: did not show inhibitory activity
[6]
  inhibition rates for all 207 kinases tested: below 50%
[7]
  IC50: 0.46 nM
[8]
  IC50: 1.03 nM
[9]; @10μM
  GM-CSF-pSTAT5 in U937 (JAK2/JAK2) inhibition: no inhibition @10μM
[9]; JAK2/JAK2-dependent, read-out: GM-CSF-stimulated STAT5 phosphorylation IC50
  IC50: > 10000 nM
[10]
  activity in IL-2-mediated JAK1/JAK3 signaling: no activity
[11]
  differentiation and maturation of monocytes into dendritic cells (CD80, CD83, CD86 expression): significantly inhibited
[12]
  Caco-2 ER (efflux ratio): 1.4
[13]; Dog
  PPB (%, free): 3.7%
[13]; Human
  PPB (%, free): 0.844%
[13]; Monkey
  PPB (%, free): 2.8%
[13]; Mouse
  PPB (%, free): 0.201%
[13]; Rat
  PPB (%, free): 1.3%
[14]
  specific human metabolites in vitro (Met ID): no specific human metabolites in vitro
[15]
  safety in toxicological studies: excellent safety
[16]
  safety in toxicological studies: excellent safety
